Key:
Rodent lens explants = system: Rodent lens explants
Experimental: Rodent lenses were surgically removed and placed in tissue culture 199 (TC199) media (Invitrogen) supplemented with bicarbonate buffer with and without 10 mM TEA (Sigma Aldrich Co.). Darkfield photomicrographs of the cells were taken over a seven day period.

SRA 01/04 cells = conditions: concentrations of TEA greater than five mM
Text: Preparation of Lens Epithelial Cell Line Culture Cells from the cell line, SRA 01/04 (deposited in the National Institute of Bioscience and Human-Technology Agency of Industrial Science and Technology, Ibaraki, Japan, international deposit No. FERM BP-5454) were thawed and plated on the bottom of a 25 square centimeter tissue culture flask (Falcon™ Flask, BD Biosciences, Lincoln Park, N.J.) and grown in high-glucose DMEM supplemented with 15% of FBS (Invitrogen, Grand Island, N.Y.) and 1% of penicillin/streptomysin (Invitrogen) at 37° C. in 5% CO2 and 95% air environment. The medium was changed twice a week. When confluence of 90-100% was reached (about 7-14 days), the medium was removed from the culture flask and the cells on the bottoms were washed with one ml of trypsin-EDTA (0.05% trypsin and EDTA, Invitrogen). […]
Approximately 15 μl of the cell suspension was pipetted onto a glass coverslip (Warner Instruments, Hamden, Conn., USA) placed on the transparent bottoms of a recording chamber mounted on an inverted differential interference contrast microscope (Eclipse TE300, Nikon, Tokyo, Japan). Whole cell currents were measured under the whole-cell configuration at room temperature (24-26° C.) using a multiclamp 700A dual channel multi-purpose microelectrode amplifier (Axon Instruments, Foster City, Calif., USA). […]

[1] = system: chloride channels on the lens; conditions: literature, Zhang, J. J. (1994); cited from earlier work

Row | Structure (SMILES) | clouding of the lens compared with control (Rodent lens explants; 10 mM TEA in TC199 media, photomicrographs over seven days) | pixel intensity histogram of lens explants (Rodent lens explants; 10 mM TEA, imaged after five days in culture) | additional current block at higher concentration (SRA 01/04 cells) | effect on chloride channels on the lens [1]
1 | CC[N+](CC)(CC)CC [TEA, tetraethylammonium] | increased clouding of the lens | rightward shift in the intensity histogram | no significant additional current block | 
2 | CC/C(=C(\c1ccccc1)c1ccc(OCCN(C)C)cc1)c1ccccc1 [tamoxifen] |  |  |  | blocks chloride channels on the lens
